Starred links: 1 amine or outer side, 2 acyl side, 3 side chain; linkers in the order of their positions; H or OH if unused. Positions of bridges follow the written chain, without caps; N, C: chain ends. Non-standard residues stand in square brackets, D forms with d. Residues, ends and D or L forms follow the SMILES beside them. Triazole bridges read from a SMILES are 1,4-linked. Trp(5-F) = N[C@@H](Cc1c[nH]c2ccc(F)cc12)C(=O)O; dTrp(5-F) = N[C@H](Cc1c[nH]c2ccc(F)cc12)C(=O)O; Pro(trans-4-F) = O=C(O)[C@@H]1C[C@@H](F)CN1; Asp(3,3-Me2) = CC(C)(C(=O)O)[C@H](N)C(=O)O; Lys(N3) = [N-]=[N+]=NCCCC[C@H](N)C(=O)O; X4 = O=C(CCSCc1cccc(CSCCN[*:1])c1)[*:2]; mXylylene = c1cc(C[*:1])cc(C[*:2])c1; X15 = Brc1cc(C[*:1])cc(C[*:2])c1; aThr = C[C@H](O)[C@H](N)C(=O)O; d(αMeP) = C[C@]1(C(=O)O)CCCN1; Tle = CC(C)(C)[C@H](N)C(=O)O; αMeP = C[C@@]1(C(=O)O)CCCN1; Hpra = C#CCC[C@H](N)C(=O)O; Aib = CC(C)(N)C(=O)O; Mpa = O=C(O)CCS
Columns and labels:
[1] = target: PCSK9 (Homo sapiens (Human), UniProt Q8NBP7); assay: PCSK9 Alexa FRET Standard assay (displacement of AlexaFluor647 tagged cyclic peptide Reagent A); type: binding; details: PCSK9 Alexa FRET Standard assay, 0.5 nM PCSK9, 20 nM AF cyclic peptide Reagent A; read-out: IC50
Sequence of PCSK9 (Q8NBP7 153-692): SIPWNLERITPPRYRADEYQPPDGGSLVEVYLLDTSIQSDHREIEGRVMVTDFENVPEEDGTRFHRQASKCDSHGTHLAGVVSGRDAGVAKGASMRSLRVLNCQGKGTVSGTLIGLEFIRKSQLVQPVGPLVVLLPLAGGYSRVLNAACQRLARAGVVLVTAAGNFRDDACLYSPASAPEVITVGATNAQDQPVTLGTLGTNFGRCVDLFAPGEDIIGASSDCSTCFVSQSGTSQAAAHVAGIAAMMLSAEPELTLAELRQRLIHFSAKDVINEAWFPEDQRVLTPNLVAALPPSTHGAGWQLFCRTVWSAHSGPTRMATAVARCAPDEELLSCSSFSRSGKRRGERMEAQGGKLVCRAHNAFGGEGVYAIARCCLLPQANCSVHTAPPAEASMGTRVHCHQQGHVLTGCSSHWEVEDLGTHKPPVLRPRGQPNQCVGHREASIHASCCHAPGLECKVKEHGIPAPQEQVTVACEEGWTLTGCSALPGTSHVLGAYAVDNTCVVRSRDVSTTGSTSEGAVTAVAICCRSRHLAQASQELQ
Outline: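 TR-FRET displacement: 0.5 nM biotinylated PCSK9 with 1.25 nM Strep-Eu and 20 nM AlexaFluor-tagged cyclic peptide (final) in 50 mM HEPES pH 7.4, 0.15 M NaCl, 5 mM CaCl2, 0.01% BSA, 0.01% P20, ≥2 h at room temperature. IC50 from sigmoidal fit, converted to Ki via peptide KD; falling Eu counts flagged false positives.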

[2] = target: human PCSK9 / human LDLR EGFa domain interaction (Homo sapiens (Human), UniProt Q8NBP7); assay: TR-FRET assay of inhibition of the PCSK9-LDLR protein-protein interaction; type: binding; details: TR-FRET, 20 nM human PCSK9, 20 nM human LDLR EGFa domain, 2 hours room temperature; read-out: IC50
Sequence of human PCSK9 / human LDLR EGFa domain interaction (Q8NBP7 153-692): as above
Sequence of human PCSK9 / human LDLR EGFa domain interaction (Q8NBP7 31-152 partner): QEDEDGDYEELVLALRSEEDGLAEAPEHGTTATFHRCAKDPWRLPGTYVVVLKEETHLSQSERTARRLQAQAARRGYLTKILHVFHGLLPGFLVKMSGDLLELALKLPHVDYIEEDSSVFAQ
Outline: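 Half-maximal inhibitory concentrations came from 4-parameter fits of dose-response data. Proteins: biotinylated PCSK9, His-tagged LDLR EGFa, 20 nM each; labels 5 nM; 2 h, room temperature; buffer 50 mM HEPES, 150 mM NaCl, 5 mM CaCl2.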

## COc1ccc(C[C@@H]2NC(=O)[C@H]([C@@H](C)O)NC(=O)[C@@H]3CCCN3C(=O)[C@H](Cc3c[nH]c4ccc(F)cc34)NC(=O)[C@H](Cc3c[nH]c4ccc(F)cc34)NC(=O)[C@@H](C)NC(=O)[C@H](CCCCN)NC(=O)CCSCc3cc(Br)cc(c3)CSC[C@@H](C(N)=O)NC(=O)[C@]3(C)CCCN3C2=O)cc1 [Compound 061] ([Mpa]K[dA][Trp(5-F)][Trp(5-F)]PTY(Me)[αMeP]C-NH2; linker 1-10 via X15)
[1]
  IC50: 21000 to 50000 nM
[2]
  IC50: 21000 to 50000 nM

## COc1ccc(C[C@H]2NC(=O)[C@@H](Cc3c[nH]cn3)NC(=O)[C@@H](CC(=O)O)NC(=O)[C@@H](Cc3c[nH]c4ccc(F)cc34)NC(=O)[C@@H](Cc3c[nH]c4ccc(F)cc34)NC(=O)[C@H](C(C)(C)C)NC(=O)[C@@H](CCCCN)NC(=O)CCSCc3cccc(c3)CSCCNC(=O)[C@@]3(C)CCCN3C2=O)cc1 [Compound 362] (cyclo([Tle][dTrp(5-F)][dTrp(5-F)][dD][dH][dY](Me)[d(αMeP)][X4][dK]))
[1]
  IC50: 0.11 to 100 nM
[2]
  IC50: 0.1 to 100 nM

## CC(=O)N[C@H]1CCc2cn(nn2)CCCC[C@@H](C(N)=O)NC(=O)[C@]2(C)CCCN2C(=O)[C@H](Cc2ccc(O)cc2)NC(=O)[C@H](Cc2cnc[nH]2)NC(=O)[C@H](CC(=O)O)NC(=O)[C@H](Cc2c[nH]c3ccc(F)cc23)NC(=O)[C@H](Cc2c[nH]c3ccc(F)cc23)NC(=O)CNC(=O)[C@H](C)NC1=O [Compound 339] (Ac-[Hpra]AG[Trp(5-F)][Trp(5-F)]DHY[αMeP][Lys(N3)]-NH2; triazole 1-10)
[1]
  IC50: 1000 to 12100 nM
[2]
  IC50: 1000 to 12100 nM

## CO[C@@H](C)[C@@H]1NC(=O)[C@@H]2CCCN2C(=O)[C@H](Cc2c[nH]c3ccc(F)cc23)NC(=O)[C@H](Cc2c[nH]c3ccc(F)cc23)NC(=O)[C@@H](C)NC(=O)[C@H](CCCCN)NC(=O)CCSCc2cccc(c2)CSC[C@@H](C(N)=O)NC(=O)[C@]2(C)CCCN2C(=O)[C@H](Cc2ccc(O)cc2)NC1=O [Compound 053] ([Mpa]K[dA][Trp(5-F)][Trp(5-F)]P[aThr](Me)Y[αMeP]C-NH2; linker 1-10 via mXylylene)
[1]
  IC50: 1000 to 12100 nM
[2]
  IC50: 1000 to 12100 nM

## C[C@H]1NC(=O)[C@H](CCCCN)NC(=O)CCSCc2cccc(c2)CSC[C@@H](C(N)=O)NC(=O)[C@]2(C)CCCN2C(=O)[C@H](Cc2ccc(O)cc2)NC(=O)C(C)(C)NC(=O)[C@@H]2CCCN2C(=O)[C@H](Cc2c[nH]c3ccc(F)cc23)NC(=O)[C@H](Cc2c[nH]c3ccc(F)cc23)NC1=O [Compound 005] ([Mpa]K[dA][Trp(5-F)][Trp(5-F)]P[Aib]Y[αMeP]C-NH2; linker 1-10 via mXylylene)
[1]
  IC50: 100 to 1000 nM
[2]
  IC50: 0.1 to 100 nM

## C[C@H]1NC(=O)[C@H](C(C)(C)C(=O)O)NC(=O)[C@H](Cc2c[nH]c3ccc(F)cc23)NC(=O)[C@H](Cc2c[nH]c3ccc(F)cc23)NC(=O)CNC(=O)[C@H](CCCCN)NC(=O)CCSCc2cccc(c2)CSC[C@@H](C(N)=O)NC(=O)[C@]2(C)CCCN2C(=O)[C@H](Cc2ccc(O)cc2)NC1=O [Compound 055] ([Mpa]KG[Trp(5-F)][Trp(5-F)][Asp(3,3-Me2)][dA]Y[αMeP]C-NH2; linker 1-10 via mXylylene)
[1]
  IC50: 21000 to 50000 nM
[2]
  IC50: 1000 to 12100 nM

## CO[C@H](C)[C@@H]1NC(=O)[C@@H]2C[C@@H](F)CN2C(=O)[C@H](Cc2c[nH]c3ccc(F)cc23)NC(=O)[C@H](Cc2c[nH]c3ccc(F)cc23)NC(=O)CNC(=O)[C@H](CCCCN)NC(=O)CCSCc2cccc(c2)CSC[C@@H](C(N)=O)NC(=O)[C@]2(C)CCCN2C(=O)[C@H](Cc2ccc(O)cc2)NC1=O [Compound 059] ([Mpa]KG[Trp(5-F)][Trp(5-F)][Pro(trans-4-F)]T(Me)Y[αMeP]C-NH2; linker 1-10 via mXylylene)
[1]
  IC50: 100 to 1000 nM
[2]
  IC50: 100 to 1000 nM

## NCCCC[C@@H]1NC(=O)CCSCc2cccc(c2)CSC[C@@H](C(N)=O)NC(=O)[C@@H]2CCCN2C(=O)[C@H](Cc2ccc(O)cc2)NC(=O)[C@H](Cc2c[nH]cn2)NC(=O)[C@H](CC(=O)O)NC(=O)[C@H](Cc2c[nH]c3ccc(F)cc23)NC(=O)[C@H](Cc2c[nH]c3ccc(F)cc23)NC(=O)CNC1=O [Compound 149] ([Mpa]KG[Trp(5-F)][Trp(5-F)]DHYPC-NH2; linker 1-10 via mXylylene)
[1]
  IC50: 1000 to 12100 nM
[2]
  IC50: 1000 to 12100 nM

## CC(=O)N[C@H]1CCCCn2cc(nn2)CC[C@@H](C(N)=O)NC(=O)[C@]2(C)CCCN2C(=O)[C@H](Cc2ccc(O)cc2)NC(=O)[C@H](Cc2cnc[nH]2)NC(=O)[C@H](CC(=O)O)NC(=O)[C@H](Cc2c[nH]c3ccc(F)cc23)NC(=O)[C@H](Cc2c[nH]c3ccc(F)cc23)NC(=O)CNC(=O)[C@H](C)NC1=O [Compound 332] (Ac-[Lys(N3)]AG[Trp(5-F)][Trp(5-F)]DHY[αMeP][Hpra]-NH2; triazole 1-10)
[1]
  IC50: 100 to 1000 nM
[2]
  IC50: 0.1 to 100 nM
